The source made the active and inactive calls. The rule behind the calls is not given here.
Tests used:
[1] = Half life of compound; assay type: physicochemical
NIH3T3 [2] = assay: Inhibition of TGF-beta1-induced EMT in mouse NIH3T3 cells assessed as decrease in alpha-SMA level at 10 uM incubated for 48 hrs by Western blot analysis; assay type: functional, cell-based
NIH3T3 [3] = assay: Inhibition of TGF-beta1-induced EMT in mouse NIH3T3 cells assessed as decrease in fibronectin level at 10 uM incubated for 48 hrs by Western blot analysis; assay type: functional, cell-based
[4] = Stability in C57BL/6J mouse serum assessed as proteolysis resistance measured up to 72 hrs by HPLC analysis; assay type: ADME, cell-free
NIH3T3 [5] = assay: Cytotoxicity against mouse NIH3T3 cells assessed as inhibition of cell viability at 10 to 40 uM incubated for 48 hrs by CCK8 assay; assay type: toxicity, cell-based; conditions: nih3t3, 48 h, dose 10-40 µM
[6] = AUC (0 to t) in male C57BL/6J mouse at 2.8 mg/kg, iv measured for 3 to 240 mins by UHPLC-HRMS analysis; assay type: ADME, organism-based; conditions: in vivo, time 3-240 min
[7] = AUC (0 to infinity) in male C57BL/6J mouse at 2.8 mg/kg, iv measured for 3 to 240 mins by UHPLC-HRMS analysis; assay type: ADME, organism-based; conditions: in vivo, time 3-240 min
[8] = Volume of distribution in male C57BL/6J mouse at 2.8 mg/kg, iv measured for 3 to 240 mins by UHPLC-HRMS analysis; assay type: ADME, organism-based; conditions: in vivo, time 3-240 min
[9] = MRT in male C57BL/6J mouse at 2.8 mg/kg, iv measured for 3 to 240 mins by UHPLC-HRMS analysis; assay type: ADME, organism-based; conditions: in vivo, time 3-240 min
NIH3T3 [10] = assay: Inhibition of myofibroblast activation in TGF-beta1-induced EMT in mouse NIH3T3 cells assessed as decrease in alpha-SMA level incubated for 48 hrs by Western blot analysis; assay type: functional, cell-based; conditions: dose 1-10 µM
NIH3T3 [11] = assay: Inhibition of myofibroblast activation in TGF-beta1-induced EMT in mouse NIH3T3 cells assessed as decrease in fibronectin level incubated for 48 hrs by Western blot analysis; assay type: functional, cell-based; conditions: dose 1-10 µM
NIH3T3 [12] = assay: Inhibition of myofibroblast activation in TGF-beta1-induced EMT in mouse NIH3T3 cells assessed as decrease in collagen I mRNA level at 1 to 2 uM incubated for 48 hrs by qPCR analysis; assay type: functional, cell-based; conditions: dose 1-2 µM
NIH3T3 [13] = assay: Inhibition of myofibroblast activation in TGF-beta1-induced EMT in mouse NIH3T3 cells assessed as decrease in alpha-SMA mRNA level at 1 to 2 uM incubated for 48 hrs by qPCR analysis; assay type: functional, cell-based; conditions: dose 1-2 µM
HK-2 [14] = assay: Inhibition of myofibroblast activation in TGF-beta1-induced EMT in human HK-2 cells assessed as decrease in alpha-SMA level at 1 to 10 uM incubated for 24 hrs by Western blot analysis; assay type: functional, cell-based; conditions: dose 1-10 µM
HK-2 [15] = assay: Inhibition of myofibroblast activation in TGF-beta1-induced EMT in human HK-2 cells assessed as decrease in collagen I level at 1 to 5 uM incubated for 24 hrs by Western blot analysis; assay type: functional, cell-based; conditions: dose 1-5 µM
HK-2 [16] = assay: Inhibition of myofibroblast activation in TGF-beta1-induced EMT in human HK-2 cells assessed as decrease in MMP-2 level at 1 to 5 uM incubated for 24 hrs by Western blot analysis; assay type: functional, cell-based; conditions: dose 1-5 µM
HK-2 [17] = assay: Inhibition of myofibroblast activation in TGF-beta1-induced EMT in human HK-2 cells assessed as increase in E-cadherin level at 1 to 5 uM incubated for 24 hrs by Western blot analysis; assay type: functional, cell-based; conditions: dose 1-5 µM
HK-2 [18] = assay: Inhibition of myofibroblast activation in TGF-beta1-induced EMT in human HK-2 cells assessed as decrease in FN-1 mRNA level at 1 to 5 uM incubated for 24 hrs by qPCR analysis; assay type: functional, cell-based; conditions: dose 1-5 µM
HK-2 [19] = assay: Inhibition of myofibroblast activation in TGF-beta1-induced EMT in human HK-2 cells assessed as decrease in COL1A1 mRNA level at 1 to 5 uM incubated for 24 hrs by qPCR analysis; assay type: functional, cell-based; conditions: dose 1-5 µM
HK-2 [20] = assay: Inhibition of myofibroblast activation in TGF-beta1-induced EMT in human HK-2 cells assessed as decrease in VIM mRNA level at 1 to 5 uM incubated for 24 hrs by qPCR analysis; assay type: functional, cell-based; conditions: dose 1-5 µM
HK-2 [21] = assay: Inhibition of myofibroblast activation in TGF-beta1-induced EMT in human HK-2 cells assessed as decrease in ACTA2 mRNA level at 1 to 5 uM incubated for 24 hrs by qPCR analysis; assay type: functional, cell-based; conditions: dose 1-5 µM
Mus musculus [22] = assay: Anti-fibrotic activity in C57BL/6J mouse model of unilateral ureteral obstruction assessed as decrease in collagen I level at 0.25 mg/kg, ip administered every day for 7 days by Western blot analysis; assay type: functional, organism-based; conditions: time 7.0 day
Mus musculus [23] = assay: Anti-fibrotic activity in C57BL/6J mouse model of unilateral ureteral obstruction assessed as decrease in alpha-SMA mRNA level at 0.25 mg/kg, ip administered every day for 7 days by qPCR analysis; assay type: functional, organism-based; conditions: time 7.0 day
Mus musculus [24] = assay: Anti-fibrotic activity in C57BL/6J mouse model of unilateral ureteral obstruction assessed as decrease in collagen I mRNA level at 0.25 mg/kg, ip administered every day for 7 days by qPCR analysis; assay type: functional, organism-based; conditions: time 7.0 day
Mus musculus [25] = assay: Anti-fibrotic activity in C57BL/6J mouse model of unilateral ureteral obstruction assessed as decrease in MMP2 mRNA level at 0.25 mg/kg, ip administered every day for 7 days by qPCR analysis; assay type: functional, organism-based; conditions: time 7.0 day
Mus musculus [26] = assay: Anti-fibrotic activity in C57BL/6J mouse model of unilateral ureteral obstruction assessed as decrease in yellowish appearance of kidney at 0.05 to 1.25 mg/kg, ip administered every day for 7 days; assay type: functional, organism-based; conditions: dose 0.05-1.25 mg/kg, time 7.0 day
Mus musculus [27] = assay: Anti-fibrotic activity in C57BL/6J mouse model of unilateral ureteral obstruction assessed as decrease in kidney edema at 0.05 to 1.25 mg/kg, ip administered every day for 7 days; assay type: functional, organism-based; conditions: dose 0.05-1.25 mg/kg, time 7.0 day
Mus musculus [28] = assay: Anti-fibrotic activity in C57BL/6J mouse model of unilateral ureteral obstruction assessed as decrease in kidney inflammation at 0.05 to 1.25 mg/kg, ip administered every day for 7 days; assay type: functional, organism-based; conditions: dose 0.05-1.25 mg/kg, time 7.0 day
Mus musculus [29] = assay: Anti-fibrotic activity in C57BL/6J mouse model of unilateral ureteral obstruction assessed as decrease in kidney fibrosis at 0.05 to 1.25 mg/kg, ip administered every day for 7 days; assay type: functional, organism-based; conditions: dose 0.05-1.25 mg/kg, time 7.0 day
Mus musculus [30] = assay: Anti-fibrotic activity in C57BL/6J mouse model of unilateral ureteral obstruction assessed as decrease in renal fibrosis at 0.05 to 1.25 mg/kg, ip administered every day for 7 days by H and E staining based analysis; assay type: functional, organism-based; conditions: dose 0.05-1.25 mg/kg, time 7.0 day
Mus musculus [31] = assay: Anti-fibrotic activity in C57BL/6J mouse model of unilateral ureteral obstruction assessed as decrease in renal fibronectin […] level administered intraperitoneally every day for 7 days by IHC analysis; assay type: functional, organism-based; conditions: dose 0.05-1.25 mg/kg, route ip, time 7.0 day
Mus musculus [32] = assay: Anti-fibrotic activity in C57BL/6J mouse model of unilateral ureteral obstruction assessed as decrease in renal collagen I […] level administered intraperitoneally every day for 7 days by IHC analysis; assay type: functional, organism-based; conditions: dose 0.05-1.25 mg/kg, route ip, time 7.0 day
Mus musculus [33] = assay: Anti-fibrotic activity in C57BL/6J mouse model of unilateral ureteral obstruction assessed as minimum effective dose administered intraperitoneally every day for 7 days; assay type: functional; conditions: route ip; time 7 day

CCCCCCCCCCCC(=O)N[C@H](CC(=O)O)C(=O)N[C@@H](Cc1c[nH]cn1)C(=O)N[C@@H](CC(N)=O)C(=O)N[C@H]1CSCCCCCCSC[C@@H](C(N)=O)NC(=O)[C@@H](C)NC(=O)[C@H](CCC(N)=O)NC(=O)[C@@H]2CCCN2C1=O
half-life [1]: 27 h | inhibition (NIH3T3 [2]): Active | inhibition (NIH3T3 [3]): Active | Stability [4]: Stable | Activity (NIH3T3 [5]): Non-toxic | AUC(0-t) [6]: 1890 ng·h/mL | AUC(0-inf) [7]: 1940 ng·h/mL | Vd [8]: 0.044 L | MRT [9]: 0.337 h | inhibition (NIH3T3 [10]): Active; No Further Enhancement In Antifibrotic Activity Was Observed At Concentrations Above 2 Î¼M | inhibition (NIH3T3 [11]): Active; No Further Enhancement In Antifibrotic Activity Was Observed At Concentrations Above 2 Î¼M | inhibition (NIH3T3 [12]): Active | inhibition (NIH3T3 [13]): Active | inhibition (HK-2 [14]): Active; No Additional Suppression Observed At Concentrations Above 5 Î¼M | inhibition (HK-2 [15]): Active | inhibition (HK-2 [16]): Active | inhibition (HK-2 [17]): Active | inhibition (HK-2 [18]): Active | inhibition (HK-2 [19]): Active | inhibition (HK-2 [20]): Active | inhibition (HK-2 [21]): Active | Activity (Mus musculus [22]): Active | Activity (Mus musculus [23]): Active | Activity (Mus musculus [24]): Active | Activity (Mus musculus [25]): Active | Activity (Mus musculus [26]): Active | Activity (Mus musculus [27]): Active | Activity (Mus musculus [28]): Active | Activity (Mus musculus [29]): Active | Activity (Mus musculus [30]): Active | Activity (Mus musculus [31]): Dose-dependent-effect | Activity (Mus musculus [32]): Dose-dependent-effect | MEC (Mus musculus [33]): 0.05 mg/kg
